Measurements: patent US20260042764A1, “COMPOSITIONS AND METHODS FOR INHIBITION OF KRAS” (TheRas, Inc., priority 2022, published 2026)

Columns and labels:
[1] = target: T1, Avi-KRAS G12D (1-169) GppNHp/RAF1 RBD-3xFLAG (52-151) (Homo sapiens, UniProt P01116, G12D); assay: Raf1-KRAS G12D-GppNHP disruption HTRF assay (Biological Example 1); format: binding
T1 construct: Avi-KRAS G12D (1-169)
In short: (§1)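 HTRF PPI disruption; buffer 50 mM Tris pH 7.5, 100 mM NaCl, 5 mM MgCl2, 0.1% BSA, 0.01% Tween, 10% DMSO. Protein mix 1 h RT shaking, reagent mix 1 h RT shaking. Data as % activity vs DMSO (100%).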

GP2d cells (KRAS G12D) = assay: Cell-based pERK HTRF assay in GP2d cell (Biological Example 2); conditions: GP2d (KRAS G12D) cells, pERK HTRF
In short: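 Cells grown in DMEM with 10% FBS were exposed to compound for 60 min at 0.25% DMSO, using a 9-point half-log series starting at 1 μM or 100 nM. Lysates were then mixed with d2 and Eu cryptate antibodies for 4–24 h at room temperature, and pERK was read by HTRF.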

[2] = target: T2, Avi-KRAS G12V (1-169) GppNHp/RAF1 RBD-3xFLAG (52-151) (Homo sapiens, UniProt P01116, G12V); assay: Raf1-KRAS G12V-GppNHP disruption HTRF assay (Biological Example 1); format: binding
T2 construct: Avi-KRAS G12V (1-169)
In short: as §1

SW620 cells (KRAS G12V) = assay: Cell-based pERK HTRF assay in SW620 cell (Biological Example 4); conditions: pERK HTRF
In short: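 Read-out: HTRF pERK signal (excitation 320 nm, emission 615 nm) from lysates of SW620 cells after 4 h compound exposure. Dose range was 9 points, half-log steps from 1 μM, in 0.25% DMSO; antibody incubation ran 4–24 h at room temperature.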

[3] = target: T3, Avi-KRAS G12R (1-169) GppNHp/RAF1 RBD-3xFLAG (52-151) (Homo sapiens, UniProt P01116, G12R); assay: Raf1-KRAS G12R-GppNHP disruption HTRF assay (Biological Example 1); format: binding
T3 construct: Avi-KRAS G12R (1-169)
In short: as §1

[4] = target: T4, Avi-KRAS WT (1-169) GppNHp/RAF1 RBD-3xFLAG (52-151) (Homo sapiens, UniProt P01116); assay: Raf1-KRAS WT-GppNHP disruption HTRF assay (Biological Example 1); format: binding
T4 construct: Avi-KRAS WT (1-169)
In short: as §1

[5] = KRAS G12D, GppNHp-loaded, Table 11
[6] = KRAS G12V, GppNHp-loaded, Table 11
[7] = Homo sapiens, SW-620, SW620 (KRAS G12V) cells
[8] = KRAS G12R, GppNHp-loaded, Table 11
[9] = KRAS WT, GppNHp-loaded, Table 11
[10] = KRAS G12D, GppNHp-loaded, class symbols
[11] = KRAS G12V, GppNHp-loaded, class symbols
[12] = Homo sapiens, SW-620, SW620 (KRAS G12V) cells, class symbols
[13] = KRAS G12R, GppNHp-loaded, class symbols
[14] = KRAS WT, GppNHp-loaded, class symbols

T2 sequence (P01116 1-169 isoform P01116-2 G12V): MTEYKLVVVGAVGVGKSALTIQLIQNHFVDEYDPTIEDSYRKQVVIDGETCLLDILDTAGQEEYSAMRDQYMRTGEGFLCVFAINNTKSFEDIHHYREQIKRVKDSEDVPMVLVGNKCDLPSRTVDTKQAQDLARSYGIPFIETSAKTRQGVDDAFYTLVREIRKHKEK
T4 sequence (P01116 1-169 isoform P01116-2): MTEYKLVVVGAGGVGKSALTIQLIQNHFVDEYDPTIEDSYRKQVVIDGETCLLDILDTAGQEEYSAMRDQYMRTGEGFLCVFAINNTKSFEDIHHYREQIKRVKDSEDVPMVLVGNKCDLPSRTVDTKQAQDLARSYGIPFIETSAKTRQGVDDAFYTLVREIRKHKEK
T3 sequence (P01116 1-169 isoform P01116-2 G12R): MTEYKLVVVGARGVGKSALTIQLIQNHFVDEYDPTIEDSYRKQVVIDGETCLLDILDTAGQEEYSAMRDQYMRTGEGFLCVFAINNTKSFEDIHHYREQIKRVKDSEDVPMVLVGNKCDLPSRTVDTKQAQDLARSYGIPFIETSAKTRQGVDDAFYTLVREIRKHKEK
T1 sequence (P01116 1-169 isoform P01116-2 G12D): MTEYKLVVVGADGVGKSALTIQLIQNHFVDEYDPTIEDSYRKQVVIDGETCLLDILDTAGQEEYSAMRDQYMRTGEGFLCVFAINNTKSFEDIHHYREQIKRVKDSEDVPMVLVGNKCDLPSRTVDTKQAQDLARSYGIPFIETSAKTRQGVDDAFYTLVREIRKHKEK

Row | SMILES | IC50 (GP2d cells (KRAS G12D); GP2d) [µM] | IC50 (SW620 cells (KRAS G12V); [7]) [µM] | IC50 [1, 10] [µM] | IC50 (GP2d cells (KRAS G12D); GP2d, class symbols) [µM] | IC50 [2, 11] [µM] | IC50 (SW620 cells (KRAS G12V); [12]) [µM] | IC50 [3, 13] [µM] | IC50 [4, 14] [µM] | IC50 ([1]; KRAS G12D-GppNHp/RAF1 RBD HTRF) [µM] | IC50 ([2]; KRAS G12V-GppNHp/RAF1 RBD HTRF) [µM] | IC50 ([3]; KRAS G12R-GppNHp/RAF1 RBD HTRF) [µM] | IC50 ([4]; KRAS WT-GppNHp/RAF1 RBD HTRF) [µM] | further results
1 | COC[C@H]1CCN1c1nc(OC[C@@]23CCCN2C[C@H](F)C3)nc2c(F)c(-c3ccc(F)c4sc(N)c(C#N)c34)c(C(F)(F)F)cc12 [Compound 270] | 0.1 to 1 | 0.1 to 1 |  |  |  |  |  |  |  |  |  |  | IC50 [1, 5]: 0.1 to 1 µM; IC50 [2, 6]: 0.1 to 1 µM; IC50 [3, 8]: 0.1 to 1 µM; IC50 [4, 9]: 0.1 to 1 µM
2 | CCN(c1nc(OC[C@@]23CCCN2C[C@H](F)C3)nc2c(F)c(-c3ccc(F)c4sc(N)c(C#N)c34)c(C(F)(F)F)cc12)[C@H]1CCN(C(=O)OC2CC2)C1 (atropisomer, axis not shown) [Compound 599] |  |  | < 0.1 | < 0.1 | < 0.1 | < 0.1 | < 0.1 | < 0.1 |  |  |  |  | 
3 | CCC(=O)N1CC[C@@H](N(C)c2nc(OC[C@]34CCCN3C[C@H](F)C4)nc3c(F)c(-c4ccc(F)c5sc(N)c(C#N)c45)c(C(F)(F)F)cc23)[C@H]1C (atropisomer, axis not shown) [Compound 336] | 0.1 to 1 | 0.1 to 1 |  |  |  |  |  |  | 1 to 10 | > 10 | > 10 | 1 to 10 | 
4 | N#Cc1c(N)sc2c(F)ccc(-c3c(C(F)(F)F)cc4c(N5CCNC(=O)CC5)nc(OC[C@@]56CCCN5C[C@H](F)C6)nc4c3F)c12 [Compound 251] | < 0.1 | 0.1 to 1 |  |  |  |  |  |  |  |  |  |  | IC50 [1, 5]: 0.1 to 1 µM; IC50 [2, 6]: 0.1 to 1 µM; IC50 [3, 8]: 0.1 to 1 µM; IC50 [4, 9]: 0.1 to 1 µM
5 | CCN(c1nc(OC[C@@]23CCCN2C[C@H](F)C3)nc2c(F)c(-c3ccc(F)c4sc(N)c(C#N)c34)c(C(F)(F)F)cc12)[C@@H]1C[C@@H](C)N(C(=O)COC)C1 (atropisomer, axis not shown) [Compound 597] |  |  | 0.1 to 1 | < 0.1 | 0.1 to 1 | < 0.1 | 0.1 to 1 | < 0.1 |  |  |  |  | 
6 | CCN(c1nc(OCC23CCCN2CC(F)C3)nc2c(F)c(-c3ccc(F)c4sc(N)c(C#N)c34)c(C(F)(F)F)cc12)C1CCN(C(=O)c2ncon2)C1 (stereo not drawn) [Compound 754] |  |  | < 0.1 | < 0.1 | 0.1 to 1 | < 0.1 | < 0.1 | 0.1 to 1 |  |  |  |  | 
7 | CCN(c1nc(OC[C@@]23CCCN2C[C@H](F)C3)nc2c(F)c(-c3ccc(F)c4sc(N)c(C#N)c34)c(C(F)(F)F)cc12)[C@H]1CCN(C(=O)c2cncnc2)C1 (atropisomer, axis not shown) [Compound 727] |  |  | < 0.1 | < 0.1 | 0.1 to 1 | < 0.1 | < 0.1 | 0.1 to 1 |  |  |  |  | 
8 | CCN(c1nc(OC[C@@]23CCCN2C[C@H](F)C3)nc2c(F)c(-c3ccc(F)c4sc(N)c(C#N)c34)c(C(F)(F)F)cc12)[C@H]1CCN(C(C)=O)[C@@H]1C (atropisomer, axis not shown) [Compound 591] |  |  | < 0.1 | < 0.1 | < 0.1 | < 0.1 | < 0.1 | < 0.1 |  |  |  |  | 
9 | C[C@H]1[C@H](N(C)c2nc(OC[C@@]34CCCN3C[C@H](F)C4)nc3c(F)c(-c4ccc(F)c5sc(N)c(C#N)c45)c(C(F)(F)F)cc23)CCN1C(=O)C1CC1 [Compound 301] | < 0.1 | < 0.1 |  |  |  |  |  |  | 0.1 to 1 | 1 to 10 | 1 to 10 | 0.1 to 1 | 
10 | CCN(c1nc(OC[C@@]23CCCN2C[C@H](F)C3)nc2c(F)c(-c3ccc(F)c4sc(N)c(C#N)c34)c(C(F)(F)F)cc12)[C@H]1C[C@H]2CN(C(C)C)C(=O)N2C1 (atropisomer, axis not shown) [Compound 784] |  |  | < 0.1 | < 0.1 | 0.1 to 1 | < 0.1 | < 0.1 | < 0.1 |  |  |  |  | 
11 | CN(CCS(C)(=O)=O)c1nc(OC[C@@]23CCCN2C[C@H](F)C3)nc2c(F)c(-c3ccc(F)c4sc(N)c(C#N)c34)c(C(F)(F)F)cc12 [Compound 217] | < 0.1 | < 0.1 |  |  |  |  |  |  |  |  |  |  | IC50 [1, 5]: 0.1 to 1 µM; IC50 [2, 6]: 0.1 to 1 µM; IC50 [3, 8]: 0.1 to 1 µM; IC50 [4, 9]: 0.1 to 1 µM
12 | N#Cc1c(N)sc2c(F)ccc(-c3c(C(F)(F)F)cc4c(N5CCOC6CC65)nc(OC[C@@]56CCCN5C[C@H](F)C6)nc4c3F)c12 (stereo partly drawn) [Compound 148] | < 0.1 | < 0.1 |  |  |  |  |  |  |  |  |  |  | IC50 [1, 5]: 0.1 to 1 µM; IC50 [2, 6]: 0.1 to 1 µM; IC50 [3, 8]: 0.1 to 1 µM; IC50 [4, 9]: 0.1 to 1 µM
13 | CC(=O)N(C)[C@@H]1CCN(c2nc(OC[C@@]34CCCN3C[C@H](F)C4)nc3c(F)c(-c4ccc(F)c5sc(N)c(C#N)c45)c(C(F)(F)F)cc23)C1 [Compound 207] | < 0.1 | 0.1 to 1 |  |  |  |  |  |  |  |  |  |  | IC50 [1, 5]: 0.1 to 1 µM; IC50 [2, 6]: 0.1 to 1 µM; IC50 [3, 8]: 0.1 to 1 µM; IC50 [4, 9]: 0.1 to 1 µM
14 | CN1C[C@H](N(C)c2nc(OC[C@@]34CCCN3C[C@H](F)C4)nc3c(F)c(-c4ccc(F)c5sc(N)c(C#N)c45)c(C(F)(F)F)cc23)CCC1=O [Compound 441] | < 0.1 | < 0.1 |  |  |  |  |  |  | 1 to 10 | 1 to 10 | 1 to 10 | 0.1 to 1 | 
15 | CN1C[C@H](N(C)c2nc(OC[C@@]34CCCN3C[C@H](F)C4)nc3c(F)c(-c4ccc(F)c5sc(N)c(C#N)c45)c(C(F)(F)F)cc23)CC1=O [Compound 285] | < 0.1 | < 0.1 |  |  |  |  |  |  | 0.1 to 1 | 0.1 to 1 | 0.1 to 1 | 0.1 to 1 | 
16 | CCN(c1nc(OC[C@@]23CCCN2C[C@H](F)C3)nc2c(F)c(-c3ccc(F)c4sc(N)c(C#N)c34)c(C(F)(F)F)cc12)[C@H]1CCN(C(=O)c2cnsc2)C1 (atropisomer, axis not shown) [Compound 729] |  |  | < 0.1 | < 0.1 | < 0.1 | < 0.1 | < 0.1 | < 0.1 |  |  |  |  | 
17 | CCN(c1nc(OC[C@@]23CCCN2C[C@H](F)C3)nc2c(F)c(-c3ccc(F)c4sc(N)c(C#N)c34)c(C(F)(F)F)cc12)[C@H]1CCN(C(=O)OC2CCN(C(C)=O)C2)C1 (stereo partly drawn) [Compound 711] |  |  | < 0.1 | < 0.1 | < 0.1 | < 0.1 | < 0.1 | < 0.1 |  |  |  |  | 
18 | CN(c1nc(OC[C@@]23CCCN2C[C@H](F)C3)nc2c(F)c(-c3ccc(F)c4sc(N)c(C#N)c34)c(C(F)(F)F)cc12)[C@@H]1CC(=O)N2CCC[C@H]12 [Compound 479] | < 0.1 | < 0.1 |  |  |  |  |  |  | 0.1 to 1 | 0.1 to 1 | 0.1 to 1 | 0.1 to 1 | 
19 | C[C@H]1C[C@H](N(c2nc(OC[C@@]34CCCN3C[C@H](F)C4)nc3c(F)c(-c4ccc(F)c5sc(N)c(C#N)c45)c(C(F)(F)F)cc23)C2CC2)CN1C(=O)C1CC1 [Compound 474] | < 0.1 | < 0.1 |  |  |  |  |  |  | 0.1 to 1 | 0.1 to 1 | 0.1 to 1 | 0.1 to 1 | 
20 | CCN(c1nc(OC[C@@]23CCCN2C[C@H](F)C3)nc2c(F)c(-c3ccc(F)c4sc(N)c(C#N)c34)c(C(F)(F)F)cc12)[C@@H]1CCN(C(=O)[C@@H](C)OC)[C@@H]1C (atropisomer, axis not shown) [Compound 807] |  |  | < 0.1 | < 0.1 | < 0.1 | < 0.1 | < 0.1 | < 0.1 |  |  |  |  | 
21 | CCC(=O)N1CC(N(C)c2nc(OCC34CCCN3CC(F)C4)nc3c(F)c(-c4ccc(F)c5sc(N)c(C#N)c45)c(C(F)(F)F)cc23)CC1C (stereo not drawn) [Compound 444] |  |  |  |  |  |  |  |  | 0.1 to 1 | 1 to 10 | 1 to 10 | 0.1 to 1 | IC50 (GP2d cells (KRAS G12D)): < 0.1 µM; IC50 (SW620 cells (KRAS G12V); SW620 (KRAS G12V) cells): < 0.1 µM
22 | N#Cc1c(N)sc2c(F)ccc(-c3c(C(F)(F)F)cc4c(N5C[C@H]6[C@@H]5CCN6C(=O)C5CC5)nc(OC[C@@]56CCCN5C[C@H](F)C6)nc4c3F)c12 (atropisomer, axis not shown) [Compound 643] |  |  | 1 to 10 | 0.1 to 1 | 1 to 10 | 0.1 to 1 | 1 to 10 | 1 to 10 |  |  |  |  | 
